The text below walks through data of ChEMBL document CHEMBL4311991, “Design, synthesis, and biological evaluation of 1-substituted -2-aryl imidazoles targeting tubulin polymerization as potential anticancer agents” (Eur J Med Chem, 2019).

What all share (format): functional, cell-based
The test system of one experiment is HeLa. Briefly: Antiproliferative activity against human HeLa cells assessed as reduction in cell viability after 72 hrs by MTT assay.
A further experiment relates to HT-29. Put plainly: Antiproliferative activity against human HT-29 cells assessed as reduction in cell viability after 72 hrs by MTT assay. Conditions: HT-29, 72 h.
In the next experiment the test system is HCT-15. Put plainly: Antiproliferative activity against human HCT15 cells assessed as reduction in cell viability after 72 hrs by MTT assay. Conditions: HCT-15, 72 h.
The next experiment concerns MDA-MB-231. Briefly: Antiproliferative activity against human MDA-MB-231 cells assessed as reduction in cell viability after 72 hrs by MTT assay. The conditions noted are these: MDA-MB-231, 72 h.
In the next experiment the test system is T47D. Put plainly: Antiproliferative activity against human T47D cells assessed as reduction in cell viability after 72 hrs by MTT assay.
For a further experiment, the system named is MDA-MB-468. Briefly: Antiproliferative activity against human MDA-MB-468 cells assessed as reduction in cell viability after 72 hrs by MTT assay. Conditions: MDA-MB-468, 72 h.

For the compound `COc1ccc(C(=O)Oc2cc(OC)c(OC)c(OC)c2)cc1N`, the IC50 with HeLa, in the experiment with HT-29, in the experiment with HCT-15, in the experiment with MDA-MB-231, with T47D and with MDA-MB-468 was more than 100 µM throughout.

In the case of `COc1ccc(OC(=O)c2cc(OC)c(OC)c(OC)c2)cc1[N+](=O)[O-]`, the IC50 in the experiment on HeLa, with HT-29, with HCT-15, in the experiment with MDA-MB-231, with T47D and in the experiment on MDA-MB-468 was more than 100 µM throughout.

Consider `COc1cc(-c2nccn2C)cc(OC)c1OC`, for which the IC50 with HeLa, with HT-29, in the experiment with HCT-15, in the experiment on MDA-MB-231, in the experiment with T47D and with MDA-MB-468 was more than 100 µM throughout.

For `COc1ccc(NC(=O)c2cc(OC)c(OC)c(OC)c2)cc1[N+](=O)[O-]`, the IC50 in the experiment with HeLa stood at 38.7 µM; with HT-29, 9.7 µM; in the experiment with HCT-15 it was 17.6 µM; in the experiment with MDA-MB-231, 31 µM; in the experiment on T47D, 34.5 µM; in the experiment with MDA-MB-468, 2.9 µM.

As for `CCCn1ccnc1-c1cc(OC)c(OC)c(OC)c1`, the half-inhibitory concentration (IC50) in the experiment with HeLa, with HT-29, in the experiment with HCT-15, with MDA-MB-231, with T47D and with MDA-MB-468 was more than 100 µM in each case.

Turning to `COc1ccc(OC(=O)c2cc(OC)c(OC)c(OC)c2)cc1N`, the IC50 with HeLa, with HT-29, in the experiment on HCT-15, with MDA-MB-231, in the experiment on T47D and with MDA-MB-468 was more than 100 µM throughout.

As to `COc1cc(-c2nccn2C(C)C)cc(OC)c1OC`, the IC50 in the experiment with HeLa, with HT-29, in the experiment on HCT-15, in the experiment on MDA-MB-231, in the experiment on T47D and in the experiment with MDA-MB-468 was more than 100 µM each time.

As for `COc1cc(-c2nccn2CC(C)C)cc(OC)c1OC`, the IC50 in the experiment on HeLa, with HT-29, with HCT-15, with MDA-MB-231, with T47D and in the experiment on MDA-MB-468 was more than 100 µM in each case.

For the compound `COc1cc(-c2nccn2-c2cccc3ccccc23)cc(OC)c1OC`, the IC50 in the experiment with HeLa was 31 µM; in the experiment with HT-29, 14.7 µM; in the experiment with HCT-15, 25.4 µM; with MDA-MB-231 it was 8 µM; with T47D, 15 µM; with MDA-MB-468, 6.2 µM.

Take `CCCCn1ccnc1-c1cc(OC)c(OC)c(OC)c1`: the IC50 in the experiment with HeLa was more than 100 µM; in the experiment on HT-29, more than 100 µM; in the experiment on HCT-15, more than 100 µM; in the experiment on MDA-MB-231, 70.4 µM; in the experiment with T47D, more than 100 µM; in the experiment on MDA-MB-468 it was 44.1 µM.

Take `COc1cc(-c2nccn2Cc2ccccc2)cc(OC)c1OC`: the IC50 in the experiment with HeLa, with HT-29, with HCT-15, with MDA-MB-231, with T47D and in the experiment with MDA-MB-468 was more than 100 µM in each case.

For `COc1ccc(C(=O)Nc2cc(OC)c(OC)c(OC)c2)cc1[N+](=O)[O-]`, the IC50 in the experiment on HeLa came out at 3.7 µM; in the experiment on HT-29, 8.3 µM; with HCT-15, 2 µM; in the experiment with MDA-MB-231 it was 5.7 µM; in the experiment with T47D it was 6 µM; with MDA-MB-468, 3 µM.

Consider `CCCCCn1ccnc1-c1cc(OC)c(OC)c(OC)c1`, for which the IC50 in the experiment on HeLa was more than 100 µM; with HT-29, 60.1 µM; in the experiment on HCT-15, more than 100 µM; in the experiment with MDA-MB-231 it was 34.2 µM; in the experiment on T47D it was 64.4 µM; in the experiment on MDA-MB-468, 57.9 µM.

With `COc1cc(-c2nccn2S(=O)(=O)c2ccc(C)cc2)cc(OC)c1OC`, the IC50 in the experiment with HeLa, in the experiment on HT-29, in the experiment on HCT-15, in the experiment on MDA-MB-231, in the experiment with T47D and in the experiment on MDA-MB-468 was more than 100 µM each time.
